Source: patent US11364248B2 (AMGEN INC., priority 2017, dated 2022)
Read-outs that look alike come from different tables or passages of the source.

Experiments:
Mcl-1/Bim interaction = Mcl-1/Bim interaction (Homo sapiens (Human), UniProt Q07820); assay: Cell Free Mcl-1: Bim Affinity Assay (Mcl-1 HTRF); assay type: binding; details: TR-FRET, recombinant human Mcl-1(171-327), biotin-Bim(51-76); read-out: Mel-1 HTRF IC50
Procedure: Cell Free Mcl-1: Bim Affinity Assay (Mcl-1 HTRF)
The inhibition of the Mcl-1/Bim interaction was measured using a time-resolved fluorescence resonance energy transfer (TR-FRET) assay. The recombinant human Mcl-1 (C-terminally 6×His tagged Mcl-1 containing residues 171-327) was generated at Amgen Inc (Thousand Oaks, Calif.). A biotinylated peptide derived from human Bim (residues 51-76) was purchased from CPC Scientific (San Jose, Calif.). The TR-FRET assay was conducted in a 384-well white OptiPlate™ (PerkinElmer, Waltham, Mass.) in a total volume of 40 μL. The reaction mixture contained 0.1 nM Mcl-1(171-327), 0.05 nM biotin-Bim(51-76), 0.05 nM LANCER Eu-W1024 Anti-6×His (PerkinElmer), 0.072 nM Streptavidin-Xlent (Cisbio, Bedford, Mass.), and serially diluted test compounds in the binding buffer of 20 mM Hepes, pH 7.5, 150 mM NaCl, 0.016 mM Brij©35, and 1 mM dithiothreitol. Test compounds were pre-incubated with Mcl-1(171-327) and biotin-Bim (51-76) for 60 min before addition of the detection mixture (LANCE Eu-W1024 Anti-6×His and Streptavidin-Xlent). The reaction plates were further incubated overnight and then were read on an Envision® multimode reader (PerkinElmer). Fluorescence signals were measured at 620 nm (40-nm bandwidth) and 665 nm (7.5-nm bandwidth) with a 60 μs delay after excitation at 320 nm (75-nm bandwidth). The signal ratio at 665/620 nm corresponded to the Mcl-1/Bim interaction and was used in all data analyses. The IC50 values of test compounds were determined from duplicate data by analyzing competition curves using a four-parameter sigmoidal model in GraphPad Prism (GraphPad Software, San Diego, Calif.) or in Genedata Screener® (Genedata, Basel, Switzerland).

OPM-2 = assay: Cell Viability Assay (OPM-2 10 FBS); assay type: cell-based, human; details: OPM-2 cells, CellTiter-Glo, read-out: OPM-2 10% FBS IC50 IP
Procedure: Cell Viability Assay (OPM-2 10 FBS)
The human multiple myeloma cell line, OPM-2, was cultured in complete growth medium containing RPMI 1640 and 10% fetal bovine serum (FBS). Cells were seeded into 384-well plates at 3000 cells/well density in complete growth medium containing 10% FBS, and incubated for 16 h with serially diluted test compounds in a 37° C. incubator with 5% CO2. Cell viability was tested using CellTiter-Glo® assay (Promega, Madison, Wis.) according to the manufacturer recommendations. Luminescence was determined using an EnVision® Multilabel plate reader 25 min after the addition of detection reagent. IC50 values were then calculated with Xlfit using a logistical 4-parameter fit model in GraphPad Prism (GraphPad Software, San Diego, Calif.) or in Genedata Screener® (Genedata, Basel, Switzerland).

Sequence of Mcl-1/Bim interaction (Q07820 171-327): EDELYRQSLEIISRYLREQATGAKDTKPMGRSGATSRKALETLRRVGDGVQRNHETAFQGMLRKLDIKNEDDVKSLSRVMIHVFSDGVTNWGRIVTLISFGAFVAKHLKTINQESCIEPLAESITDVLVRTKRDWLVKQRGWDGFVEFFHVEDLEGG

`C[C@@H]1[C@@H](C)CCC[C@@H]([C@H]2OC[C@@H](N(C)C)CO2)[C@@H]2CC[C@H]2CN2C[C@@]3(CCCc4cc(Cl)ccc43)COc3ccc(cc32)C(=O)NS1(=O)=O` (relative stereo) [Example 2, (1S,3′R,6′R,7′R,11′S,12′R)-6-CHLORO-7′-(CIS-5-(DIMETHYLAMINO)-1,3-DIOXAN-2-YL)-11′,12′-DIMETHYL-3,4-DIHYDRO-2H,15′H-SPIRO[NAPHTHALENE-1,22′-[20]OXA[13]THIA[1,14]DIAZATETRACYCLO[14.7.2.0˜3,6˜.0˜19,24-]PENTACOSA[16,18,24]TRIEN]-15′-ONE 13′,13′-DIOXIDE] gave an IC50 (Mcl-1/Bim interaction) of 1.6 nM and an IC50 (OPM-2; 16 h) of 367 nM.

For `C[C@@H]1[C@@H](C)CCC[C@@H]([C@H]2OC[C@H](N(C)C)CO2)[C@@H]2CC[C@H]2CN2C[C@@]3(CCCc4cc(Cl)ccc43)COc3ccc(cc32)C(=O)NS1(=O)=O` (relative stereo) [Example 6, (1S,3′R,6′R,7′R,11′S,12′R)-6-CHLORO-7′-(TRANS-5-(DIMETHYLAMINO)-1,3-DIOXAN-2-YL)-11′,12′-DIMETHYL-3,4-DIHYDRO-2H,15′H-SPIRO[NAPHTHALENE-1,22′-[20]OXA[13]THIA[1,14]DIAZATETRACYCLO[14.7.2.0˜3,6˜.0˜19,24˜]PENTACOSA[16,18,24]TRIEN]-15′-ONE 13′,13′-DIOXIDE], the IC50 (Mcl-1/Bim interaction) was 2.09 nM and the IC50 (OPM-2; Homo sapiens, OPM-2, 16 h) was 557 nM.

`C[C@@H]1[C@@H](C)CCC[C@H]([C@H]2OC[C@H](N)CO2)[C@@H]2CC[C@H]2CN2C[C@@]3(CCCc4cc(Cl)ccc43)COc3ccc(cc32)C(=O)NS1(=O)=O` (relative stereo) [Example 17] was tested, and the IC50 (Mcl-1/Bim interaction) was 0.645 nM and the IC50 (OPM-2; 16 h) was 194 nM.

`C[C@@H]1[C@@H](C)CCC[C@H]([C@H]2OC[C@H](N)CO2)[C@@H]2CC[C@H]2CN2C[C@@]3(CCCc4cc(Cl)ccc43)COc3ccc(cc32)C(=O)NS1(=O)=O` (relative stereo) [Example 18] was tested, and the IC50 (Mcl-1/Bim interaction) was 1.37 nM and the IC50 (OPM-2; 16 h) was 1050 nM.

`CN[C@H]1CO[C@@H]([C@H]2CCC[C@H](C)[C@@H](C)S(=O)(=O)NC(=O)c3ccc4c(c3)N(C[C@@H]3CC[C@H]32)C[C@@]2(CCCc3cc(Cl)ccc32)CO4)OC1` (relative stereo) [Example 41] was tested, and the IC50 (Mcl-1/Bim interaction) was 7.99 nM and the IC50 (OPM-2; 16 h) was 7070 nM.

Compound `CN[C@H]1CO[C@@H]([C@H]2CCC[C@H](C)[C@@H](C)S(=O)(=O)NC(=O)c3ccc4c(c3)N(C[C@@H]3CC[C@H]32)C[C@@]2(CCCc3cc(Cl)ccc32)CO4)OC1` (relative stereo) [Example 42] has an IC50 (Mcl-1/Bim interaction) of 0.617 nM and an IC50 (OPM-2; 16 h) of 217 nM.

In the case of `C[C@@H]1[C@@H](C)CCC[C@H]([C@H]2OC[C@H](N3C(=O)c4ccccc4C3=O)CO2)[C@@H]2CC[C@H]2CN2C[C@@]3(CCCc4cc(Cl)ccc43)COc3ccc(cc32)C(=O)NS1(=O)=O` (relative stereo) [Example 44], the IC50 (Mcl-1/Bim interaction) is reported as 2.08 nM and the IC50 (OPM-2; 16 h) is reported as over 33300 nM.

`C[C@@H]1[C@@H](C)CCC[C@H]([C@H]2OC[C@H](N3C(=O)c4ccccc4C3=O)CO2)[C@@H]2CC[C@H]2CN2C[C@@]3(CCCc4cc(Cl)ccc43)COc3ccc(cc32)C(=O)NS1(=O)=O` (relative stereo) [Example 45] gave an IC50 (Mcl-1/Bim interaction) of 4.68 nM.

In the case of `CCN(C)[C@H]1CO[C@@H]([C@H]2CCC[C@H](C)[C@@H](C)S(=O)(=O)NC(=O)c3ccc4c(c3)N(C[C@@H]3CC[C@H]32)C[C@@]2(CCCc3cc(Cl)ccc32)CO4)OC1` (relative stereo) [Example 46], the IC50 (Mcl-1/Bim interaction) is reported as 0.34 nM and the IC50 (OPM-2; 16 h) is reported as 47 nM.

With `C[C@@H]1[C@@H](C)CCC[C@H]([C@H]2OC[C@@H](N3CC4(COC4)C3)CO2)[C@@H]2CC[C@H]2CN2C[C@@]3(CCCc4cc(Cl)ccc43)COc3ccc(cc32)C(=O)NS1(=O)=O` (relative stereo) [Example 59] the IC50 (Mcl-1/Bim interaction) was 0.319 nM and the IC50 (OPM-2; 16 h) was 90 nM.

In the case of `C[C@@H]1[C@@H](C)CCC[C@H]([C@H]2OC[C@@](CO)(N(C)C)CO2)[C@@H]2CC[C@H]2CN2C[C@@]3(CCCc4cc(Cl)ccc43)COc3ccc(cc32)C(=O)NS1(=O)=O` (relative stereo) [Example 81, (1S,3′R,6′R,7′S,11′S,12′R)-6-chloro-7′-(cis-5-(dimethylamino)-5-(hydroxymethyl)-1,3-dioxan-2-yl)-11′,12′-dimethyl-3,4-dihydro-2H,15′H-spiro[naphthalene-1,22′-[20]oxa[13]thia[1,14]diazatetracyclo [14.7.2.0~3,6~.0~19,24~]pentacosa[16,18,24]trien]-15′-one 13′,13′-dioxide], the IC50 (Mcl-1/Bim interaction) is reported as 3.32 nM and the IC50 (OPM-2; 16 h) is reported as 2540 nM.

In the case of `C[C@@H]1[C@@H](C)C/C=C/[C@@H]([C@H]2OC[C@H](N(C)C)CO2)[C@@H]2CC[C@H]2CN2C[C@@]3(CCCc4cc(Cl)ccc43)COc3ccc(cc32)C(=O)NS1(=O)=O` (relative stereo) [Example 96], the IC50 (Mcl-1/Bim interaction) is reported as 0.459 nM and the IC50 (OPM-2; 16 h) is reported as 314 nM.

Work on `C[C@@H]1[C@@H](C)C/C=C/[C@H]([C@H]2OC[C@@H](N(C)C)CO2)[C@@H]2CC[C@H]2CN2C[C@@]3(CCCc4cc(Cl)ccc43)COc3ccc(cc32)C(=O)NS1(=O)=O` (relative stereo) [Example 97] yielded an IC50 (Mcl-1/Bim interaction) of 0.308 nM and an IC50 (OPM-2; 16 h) of 84 nM.

`CO[C@H]1CO[C@@H]([C@@H]2CCC[C@H](C)[C@@H](C)S(=O)(=O)NC(=O)c3ccc4c(c3)N(C[C@@H]3CC[C@H]32)C[C@@]2(CCCc3cc(Cl)ccc32)CO4)OC1` (single isomer, unassigned) [Example 25] was tested, and the IC50 (Mcl-1/Bim interaction) was 0.473 nM and the IC50 (OPM-2; 16 h) was 903 nM.

In the case of `CO[C@H]1CO[C@@H]([C@@H]2CCC[C@H](C)[C@@H](C)S(=O)(=O)NC(=O)c3ccc4c(c3)N(C[C@@H]3CC[C@H]32)C[C@@]2(CCCc3cc(Cl)ccc32)CO4)OC1` (single isomer, unassigned) [Example 26], the IC50 (Mcl-1/Bim interaction) is reported as 6.16 nM and the IC50 (OPM-2; 16 h) is reported as 14600 nM.

Compound `C[C@@H]1CS(=O)(=O)NC(=O)c2ccc3c(c2)N(C[C@@H]2CC[C@H]2[C@@H]([C@H]2OC[C@@H](N(C)C)CO2)CC[C@@H]1C)C[C@@]1(CCCc2cc(Cl)ccc21)CO3` [Example 85, (1S,3′R,6′R,7′S,10′S,11′S)-6-chloro-7′-(cis-5-(dimethylamino)-1,3-dioxan-2-yl)-10′,11′-dimethyl-3,4-dihydro-2H,15′H-spiro[naphthalene-1,22′-[20]oxa[13]thia[1,14]diazatetracyclo [14.7.2.0~3,6~.0~19,24~]pentacosa[16,18,24]trien]-15′-one 13′,13′-dioxide] has an IC50 (OPM-2; 16 h) of 1090 nM.

Work on `COC[C@@H]1[C@@H](C)CCC[C@H]([C@H]2OC[C@@H](N(C)C)CO2)[C@@H]2CC[C@H]2CN2C[C@@]3(CCCc4cc(Cl)ccc43)COc3ccc(cc32)C(=O)NS1(=O)=O` [Example 91, (1S,3′R,6′R,7′S,11′S,12′S)-6-chloro-7′-(cis-5-(dimethylamino)-1,3-dioxan-2-yl)-12′-(methoxymethyl)-11′-methyl-3,4-dihydro-2H,15′H-spiro[naphthalene-1,22′-[20]oxa[13]thia[1,14]diazatetracyclo [14.7.2.0~3,6~.0~19,24~]pentacosa[16,18,24]trien]-15′-one 13′,13′-dioxide] yielded an IC50 (OPM-2; 16 h) of 47 nM.

For `COC[C@@H]1[C@@H](C)CCC[C@H]([C@H]2OC[C@@H](N(C)C)CO2)[C@@H]2CC[C@H]2CN2C[C@@]3(CCCc4cc(Cl)ccc43)COc3ccc(cc32)C(=O)NS1(=O)=O` [Example 92, (1S,3′R,6′R,7′S,11′S,12′S)-6-chloro-7′-(cis-5-(dimethylamino)-1,3-dioxan-2-yl)-12′-(methoxymethyl)-11′-methyl-3,4-dihydro-2H,15′H-spiro[naphthalene-1,22′-[20]oxa[13]thia[1,14]diazatetracyclo [14.7.2.0~3,6~.0~19,24~]pentacosa[16,18,24]trien]-15′-one 13′,13′-dioxide], the IC50 (OPM-2; 16 h) was 988 nM.
